Data from patent publication US20250179032A1, “HETEROCYCLIC INHIBITORS OF GLUT9 FOR TREATMENT OF DISEASE” (HORIZON THERAPEUTICS IRELAND DAC, priority 2022, published 2025).

Biological target: T1, H. sapiens SLC2A9 variant 2 (GLUT9B) (Homo sapiens, UniProt Q9NRM0)
T1 sequence (Q9NRM0 1-511 isoform Q9NRM0-2): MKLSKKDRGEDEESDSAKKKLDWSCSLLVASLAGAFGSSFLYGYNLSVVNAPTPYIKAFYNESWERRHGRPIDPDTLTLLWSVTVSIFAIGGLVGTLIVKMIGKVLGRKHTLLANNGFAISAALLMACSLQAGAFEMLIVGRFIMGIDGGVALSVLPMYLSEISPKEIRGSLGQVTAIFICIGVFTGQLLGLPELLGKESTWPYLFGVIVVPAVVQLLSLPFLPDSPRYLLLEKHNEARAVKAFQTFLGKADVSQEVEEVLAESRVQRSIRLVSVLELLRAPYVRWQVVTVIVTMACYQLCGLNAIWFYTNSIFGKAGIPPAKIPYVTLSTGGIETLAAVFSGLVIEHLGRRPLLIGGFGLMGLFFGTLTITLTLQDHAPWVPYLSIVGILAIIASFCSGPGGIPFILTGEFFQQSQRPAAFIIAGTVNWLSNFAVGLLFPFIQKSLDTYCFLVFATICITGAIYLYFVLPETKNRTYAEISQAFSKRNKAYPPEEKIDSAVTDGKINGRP
Test: GLUT9 functional assay: uric acid uptake in HEK293T cells, allantoin formation by MS/MS as proxy of GLUT9B inhibition
Format: cell-based
Details: 15 minute assay; HEK293T cells stably expressing GLUT9B and transiently A. oryzae uricase; uric acid 0.3 mM, 37° C.; read-out: 15 min IC50
How it was run: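 Inhibition of GLUT9B-mediated urate uptake read as reduced allantoin formation, measured by MS/MS against allantoin standards in HEK293T matrix with log-logistic fitting. Stable GLUT9B HEK293T cells carrying transfected A. oryzae uricase were incubated 15 or 60 min at 37° C with uric acid at Km (0.3 mM), pH 7.4 gluconate buffer.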

Compound | IC50 [nM]
COCCCc1cnc(-c2cc(C(F)(F)F)c3occc3c2)c(N2CCC(C(=O)O)CC2)n1 [Compound 237, 1-(6-(3-methoxypropyl)-3-(7-(trifluoromethyl)benzofuran-5-yl)pyrazin-2-yl)piperidine-4-carboxylic acid] | > 2000

Same assay, conditions: 60 minute assay; HEK293T cells stably expressing GLUT9B and transiently A. oryzae uricase; uric acid 0.3 mM, 37° C.; read-out: 60 min IC50

Compound | IC50 [nM]
COCCCc1cnc(-c2cnn3c2OCCC3)c(N2CCC(C(=O)O)CC2)n1 [Compound 209, 1-(3-(6,7-dihydro-5H-pyrazolo[5,1-b][1,3]oxazin-3-yl)-6-(3-methoxypropyl)pyrazin-2-yl)piperidine-4-carboxylic acid] | > 2000
COCCCc1cnc(-c2cnc3sccc3c2)c(N2CCC(C(=O)O)CC2)n1 [Compound 210, 1-(6-(3-methoxypropyl)-3-(thieno[2,3-b]pyridin-5-yl)pyrazin-2-yl)piperidine-4-carboxylic acid] | 500 to 2000
COCCCc1cnc(-c2ccc3nccn3n2)c(N2CCC(C(=O)O)CC2)n1 [Compound 211, 1-(3-(imidazo[1,2-b]pyridazin-6-yl)-6-(3-methoxypropyl)pyrazin-2-yl)piperidine-4-carboxylic acid] | > 2000
COCCCc1cnc(-c2ccn3ncnc3c2)c(N2CCC(C(=O)O)CC2)n1 [Compound 212, 1-(3-([1,2,4]triazolo[1,5-a]pyridin-7-yl)-6-(3-methoxypropyl)pyrazin-2-yl)piperidine-4-carboxylic acid] | > 2000
COCCCc1cnc(-c2cccc3cn(C)nc23)c(N2CCC(C(=O)O)CC2)n1 [Compound 213, 1-(6-(3-methoxypropyl)-3-(2-methyl-2H-indazol-7-yl)pyrazin-2-yl)piperidine-4-carboxylic acid] | > 2000
COCCCc1cnc(-c2ccnc3c2ccn3C)c(N2CCC(C(=O)O)CC2)n1 [Compound 214, 1-(6-(3-methoxypropyl)-3-(1-methyl-1H-pyrrolo[2,3-b]pyridin-4-yl)pyrazin-2-yl)piperidine-4-carboxylic acid] | > 2000
COCCCc1cnc(-c2cccc3nn(C)cc23)c(N2CCC(C(=O)O)CC2)n1 [Compound 215, 1-(6-(3-methoxypropyl)-3-(2-methyl-2H-indazol-4-yl)pyrazin-2-yl)piperidine-4-carboxylic acid] | > 2000
COCCCc1cnc(-c2cnc3c(c2)NCCO3)c(N2CCC(C(=O)O)CC2)n1 [Compound 216, 1-(3-(2,3-dihydro-1H-pyrido[2,3-b][1,4]oxazin-7-yl)-6-(3-methoxypropyl)pyrazin-2-yl)piperidine-4-carboxylic acid] | > 2000
COCCCc1cnc(-c2cnc3c(cnn3C)c2)c(N2CCC(C(=O)O)CC2)n1 [Compound 217, 1-(6-(3-methoxypropyl)-3-(1-methyl-1H-pyrazolo[3,4-b]pyridin-5-yl)pyrazin-2-yl)piperidine-4-carboxylic acid] | > 2000
COCCCc1cnc(-c2cnc3nn(C)cc3c2)c(N2CCC(C(=O)O)CC2)n1 [Compound 218, 1-(6-(3-methoxypropyl)-3-(2-methyl-2H-pyrazolo[3,4-b]pyridin-5-yl)pyrazin-2-yl)piperidine-4-carboxylic acid] | > 2000
COCCCc1cnc(-c2cnc3c(c2)ncn3C)c(N2CCC(C(=O)O)CC2)n1 [Compound 219, 1-(6-(3-methoxypropyl)-3-(3-methyl-3H-imidazo[4,5-b]pyridin-6-yl)pyrazin-2-yl)piperidine-4-carboxylic acid] | > 2000
COCCCc1cnc(-c2ccnc3cc(OC)ccc23)c(N2CCC(C(=O)O)CC2)n1 [Compound 221, 1-(6-(3-methoxypropyl)-3-(7-methoxyquinolin-4-yl)pyrazin-2-yl)piperidine-4-carboxylic acid] | > 2000
COCCCc1cnc(-c2ccnc3cc(F)c(OC)cc23)c(N2CCC(C(=O)O)CC2)n1 [Compound 222, 1-(3-(7-fluoro-6-methoxyquinolin-4-yl)-6-(3-methoxypropyl)pyrazin-2-yl)piperidine-4-carboxylic acid] | > 2000
COCCCc1cnc(-c2cc3ccoc3c(F)c2F)c(N2CCC(C(=O)O)CC2)n1 [Compound 223, 1-(3-(6,7-difluorobenzofuran-5-yl)-6-(3-methoxypropyl)pyrazin-2-yl)piperidine-4-carboxylic acid] | < 500
COCCCc1cnc(-c2cc(Cl)c3occc3c2)c(N2CCC(C(=O)O)CC2)n1 [Compound 224, 1-(3-(7-chlorobenzofuran-5-yl)-6-(3-methoxypropyl)pyrazin-2-yl)piperidine-4-carboxylic acid] | < 500
COCCCc1cnc(-c2cc(F)c3sccc3c2)c(N2CCC(C(=O)O)CC2)n1 [Compound 225, 1-(3-(7-fluorobenzo[b]thiophen-5-yl)-6-(3-methoxypropyl)pyrazin-2-yl)piperidine-4-carboxylic acid] | < 500

Compound | IC50 [nM]
COCCCc1cnc(-c2ccc3sccc3c2)c(N2CCC(C(=O)O)CC2)n1 [Compound 226, 1-(3-(benzo[b]thiophen-5-yl)-6-(3-methoxypropyl)pyrazin-2-yl)piperidine-4-carboxylic acid] | < 500
COCCCCc1cnc(-c2cc(F)c3occc3c2)c(N2CCC(C(=O)O)CC2)n1 [Compound 227, 1-(3-(7-fluorobenzofuran-5-yl)-6-(4-methoxybutyl)pyrazin-2-yl)piperidine-4-carboxylic acid] | < 500
COCCCCCc1cnc(-c2cc(F)c3occc3c2)c(N2CCC(C(=O)O)CC2)n1 [Compound 228, 1-(3-(7-fluorobenzofuran-5-yl)-6-(5-methoxypentyl)pyrazin-2-yl)piperidine-4-carboxylic acid] | < 500
COCCCc1cnc(-c2ccc(S(C)(=O)=O)cc2)c(N2CCC(C(=O)O)CC2)n1 [Compound 230, 1-(6-(3-methoxypropyl)-3-(4-(methylsulfonyl)phenyl)pyrazin-2-yl)piperidine-4-carboxylic acid] | < 500
COCCCc1cnc(-c2ccc3c(c2)COC3=O)c(N2CCC(C(=O)O)CC2)c1 [Compound 232, 1-(5-(3-methoxypropyl)-2-(1-oxo-1,3-dihydroisobenzofuran-5-yl)pyridin-3-yl)piperidine-4-carboxylic acid] | < 500
COCCCc1cnc(-c2ccc3c(c2)CCS3(=O)=O)c(N2CCC(C(=O)O)CC2)n1 [Compound 233, 1-(3-(1,1-dioxido-2,3-dihydrobenzo[b]thiophen-5-yl)-6-(3-methoxypropyl)pyrazin-2-yl)piperidine-4-carboxylic acid] | > 2000
COCCCc1cnc(-c2ccc3c(c2)CCCS3(=O)=O)c(N2CCC(C(=O)O)CC2)n1 [Compound 234, 1-(3-(1,1-dioxidothiochroman-6-yl)-6-(3-methoxypropyl)pyrazin-2-yl)piperidine-4-carboxylic acid] | > 2000
COCCCc1cnc(-c2cc(OC(F)(F)F)c3occc3c2)c(N2CCC(C(=O)O)CC2)n1 [Compound 238, 1-(6-(3-methoxypropyl)-3-(7-(trifluoromethoxy)benzofuran-5-yl)pyrazin-2-yl)piperidine-4-carboxylic acid] | 500 to 2000
COCCCc1cnc(-c2cc(C)c3occc3c2)c(N2CCC(C(=O)O)CC2)n1 [Compound 239, 1-(6-(3-methoxypropyl)-3-(7-methylbenzofuran-5-yl)pyrazin-2-yl)piperidine-4-carboxylic acid] | < 500
COCCCc1cnc(-c2cc(C(F)F)c3occc3c2)c(N2CCC(C(=O)O)CC2)n1 [Compound 240, 1-(3-(7-(difluoromethyl)benzofuran-5-yl)-6-(3-methoxypropyl)pyrazin-2-yl)piperidine-4-carboxylic acid] | < 500
COCCCc1cnc(-c2ccc3occc3n2)c(N2CCC(C(=O)O)CC2)n1 [Compound 241, 1-(3-(furo[3,2-b]pyridin-5-yl)-6-(3-methoxypropyl)pyrazin-2-yl)piperidine-4-carboxylic acid] | > 2000
COCCCc1cnc(-c2ccc3occ(C)c3c2)c(N2CCC(C(=O)O)CC2)n1 [Compound 242, 1-(6-(3-methoxypropyl)-3-(3-methylbenzofuran-5-yl)pyrazin-2-yl)piperidine-4-carboxylic acid] | 500 to 2000
COCCCc1cnc(-c2cc(F)c3occc3c2)c(N2CCCC(C(=O)O)CC2)n1 (stereo not drawn) [Compound 243, 1-(3-(7-fluorobenzofuran-5-yl)-6-(3-methoxypropyl)pyrazin-2-yl)azepane-4-carboxylic acid] | < 500
COCCCc1cnc(-c2cc(F)c3c(c2)OCO3)c(N2CCCC(C(=O)O)CC2)n1 (stereo not drawn) [Compound 244, 1-(3-(7-fluorobenzo[d][1,3]dioxol-5-yl)-6-(3-methoxypropyl)pyrazin-2-yl)azepane-4-carboxylic acid] | < 500
COCCCc1cnc(-c2cc(F)c3occc3c2)c(N2CCCC(C(=O)O)CC2)c1 (stereo not drawn) [Compound 245, 1-(2-(7-Fluorobenzofuran-5-yl)-5-(3-Methoxypropyl)Pyridin-3-yl)azepane-4-carboxylic acid] | < 500
COCCCc1cnc(-c2cc(F)c3c(c2)OCO3)c(N2CCCC(C(=O)O)CC2)c1 (stereo not drawn) [Compound 246, 1-(2-(7-fluorobenzo[d][1,3]dioxol-5-yl)-5-(3-methoxypropyl)pyridin-3-yl)azepane-4-carboxylic acid] | < 500
